{"source": "ChEMBL document CHEMBL5058643", "about": "“Data for DCP probe BI-2081” (2022)", "key": {"[1]": {"biological_target": "T1, 5-hydroxytryptamine receptor 1A (Homo sapiens) (UniProt P08908)", "T1 sequence (whole entry)": "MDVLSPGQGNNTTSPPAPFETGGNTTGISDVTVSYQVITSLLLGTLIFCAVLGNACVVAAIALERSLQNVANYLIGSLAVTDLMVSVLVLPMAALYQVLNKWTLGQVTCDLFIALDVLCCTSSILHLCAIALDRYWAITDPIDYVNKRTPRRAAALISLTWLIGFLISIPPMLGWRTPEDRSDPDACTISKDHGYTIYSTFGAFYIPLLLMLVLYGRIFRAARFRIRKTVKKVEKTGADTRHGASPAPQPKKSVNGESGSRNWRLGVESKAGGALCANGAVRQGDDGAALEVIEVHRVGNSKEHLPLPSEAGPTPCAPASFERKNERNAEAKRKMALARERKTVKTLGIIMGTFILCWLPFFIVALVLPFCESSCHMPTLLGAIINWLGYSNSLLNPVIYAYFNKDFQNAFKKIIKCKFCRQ", "assay": "5HT1A/H Eurofins SafetyScreen44 (BI)", "settings": "Compound concentration 10.0 uM"}, "[2]": {"biological_target": "Gamma-aminobutyric acid receptor subunit alpha-1 (Rattus norvegicus) (UniProt P62813)", "sequence (P62813 whole entry)": "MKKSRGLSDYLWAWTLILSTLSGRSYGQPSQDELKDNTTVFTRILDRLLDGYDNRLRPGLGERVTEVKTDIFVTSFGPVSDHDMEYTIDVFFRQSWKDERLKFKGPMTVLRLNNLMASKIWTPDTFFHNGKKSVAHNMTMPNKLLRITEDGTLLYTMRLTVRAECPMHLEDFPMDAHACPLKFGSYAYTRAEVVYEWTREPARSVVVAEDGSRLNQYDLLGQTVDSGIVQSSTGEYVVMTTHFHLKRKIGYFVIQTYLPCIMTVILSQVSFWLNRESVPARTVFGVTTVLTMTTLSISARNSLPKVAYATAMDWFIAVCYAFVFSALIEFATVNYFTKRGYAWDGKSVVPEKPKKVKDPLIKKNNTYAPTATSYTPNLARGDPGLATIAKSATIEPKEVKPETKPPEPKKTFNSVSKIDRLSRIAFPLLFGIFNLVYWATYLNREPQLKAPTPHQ", "assay": "BZD/CENTR/R Eurofins SafetyScreen44 (BI)", "settings": "Compound concentration 10.0 uM"}, "[3]": {"biological_target": "5-hydroxytryptamine receptor 2B (Homo sapiens) (UniProt P41595)", "sequence (P41595 whole entry)": "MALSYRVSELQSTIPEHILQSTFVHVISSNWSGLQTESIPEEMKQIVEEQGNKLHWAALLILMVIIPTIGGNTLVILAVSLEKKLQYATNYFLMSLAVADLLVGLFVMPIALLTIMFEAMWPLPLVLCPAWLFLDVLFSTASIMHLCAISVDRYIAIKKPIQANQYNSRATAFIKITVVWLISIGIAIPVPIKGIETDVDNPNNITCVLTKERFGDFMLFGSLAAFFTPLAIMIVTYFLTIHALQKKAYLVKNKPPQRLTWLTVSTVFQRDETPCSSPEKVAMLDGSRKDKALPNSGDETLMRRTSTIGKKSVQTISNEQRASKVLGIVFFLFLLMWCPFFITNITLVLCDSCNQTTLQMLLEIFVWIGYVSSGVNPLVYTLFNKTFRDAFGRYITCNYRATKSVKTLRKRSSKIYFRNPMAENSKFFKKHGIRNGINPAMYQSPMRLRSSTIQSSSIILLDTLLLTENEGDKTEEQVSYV", "assay": "5HT2B/H AG Eurofins SafetyScreen44 (BI)", "settings": "filed as agonist, Compound concentration 10.0 uM"}, "[4]": {"biological_target": "Androgen receptor (Homo sapiens) (UniProt P10275)", "sequence (P10275 whole entry)": "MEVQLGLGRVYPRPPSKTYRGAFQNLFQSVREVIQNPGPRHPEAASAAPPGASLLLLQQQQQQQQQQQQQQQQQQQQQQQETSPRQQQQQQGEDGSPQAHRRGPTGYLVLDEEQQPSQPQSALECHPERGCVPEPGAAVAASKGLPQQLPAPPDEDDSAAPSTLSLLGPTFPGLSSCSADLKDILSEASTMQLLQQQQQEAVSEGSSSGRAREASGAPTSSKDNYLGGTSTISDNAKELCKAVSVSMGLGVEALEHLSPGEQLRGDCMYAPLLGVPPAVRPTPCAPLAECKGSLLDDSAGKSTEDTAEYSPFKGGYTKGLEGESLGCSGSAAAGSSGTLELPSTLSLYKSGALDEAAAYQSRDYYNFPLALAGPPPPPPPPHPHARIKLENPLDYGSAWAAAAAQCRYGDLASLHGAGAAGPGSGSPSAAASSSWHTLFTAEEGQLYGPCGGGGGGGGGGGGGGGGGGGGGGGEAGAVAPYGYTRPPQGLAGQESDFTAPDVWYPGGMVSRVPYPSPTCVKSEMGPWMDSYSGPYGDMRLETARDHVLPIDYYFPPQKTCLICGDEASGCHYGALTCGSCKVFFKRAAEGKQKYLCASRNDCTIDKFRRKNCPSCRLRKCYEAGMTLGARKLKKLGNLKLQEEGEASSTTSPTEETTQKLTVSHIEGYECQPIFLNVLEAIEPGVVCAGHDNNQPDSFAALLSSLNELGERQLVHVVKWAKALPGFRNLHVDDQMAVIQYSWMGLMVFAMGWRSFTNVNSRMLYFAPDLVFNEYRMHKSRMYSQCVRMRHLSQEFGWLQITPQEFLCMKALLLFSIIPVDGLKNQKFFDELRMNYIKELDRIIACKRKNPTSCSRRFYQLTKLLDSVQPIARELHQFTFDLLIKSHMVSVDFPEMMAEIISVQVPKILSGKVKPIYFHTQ", "assay": "ANDROGEN/H Eurofins SafetyScreen44 (BI)", "settings": "Compound concentration 10.0 uM"}, "[5]": {"biological_target": "Cannabinoid receptor 1 (Homo sapiens) (UniProt P21554)", "assay": "CB1(HU)_AGON Eurofins SafetyScreen44 (BI)", "settings": "filed as agonist; Compound concentration 10.0 uM"}, "[6]": {"biological_target": "Glutamate receptor ionotropic, NMDA 2A (Rattus norvegicus) (UniProt Q00959)", "sequence (Q00959 23-1464 limits assumed)": "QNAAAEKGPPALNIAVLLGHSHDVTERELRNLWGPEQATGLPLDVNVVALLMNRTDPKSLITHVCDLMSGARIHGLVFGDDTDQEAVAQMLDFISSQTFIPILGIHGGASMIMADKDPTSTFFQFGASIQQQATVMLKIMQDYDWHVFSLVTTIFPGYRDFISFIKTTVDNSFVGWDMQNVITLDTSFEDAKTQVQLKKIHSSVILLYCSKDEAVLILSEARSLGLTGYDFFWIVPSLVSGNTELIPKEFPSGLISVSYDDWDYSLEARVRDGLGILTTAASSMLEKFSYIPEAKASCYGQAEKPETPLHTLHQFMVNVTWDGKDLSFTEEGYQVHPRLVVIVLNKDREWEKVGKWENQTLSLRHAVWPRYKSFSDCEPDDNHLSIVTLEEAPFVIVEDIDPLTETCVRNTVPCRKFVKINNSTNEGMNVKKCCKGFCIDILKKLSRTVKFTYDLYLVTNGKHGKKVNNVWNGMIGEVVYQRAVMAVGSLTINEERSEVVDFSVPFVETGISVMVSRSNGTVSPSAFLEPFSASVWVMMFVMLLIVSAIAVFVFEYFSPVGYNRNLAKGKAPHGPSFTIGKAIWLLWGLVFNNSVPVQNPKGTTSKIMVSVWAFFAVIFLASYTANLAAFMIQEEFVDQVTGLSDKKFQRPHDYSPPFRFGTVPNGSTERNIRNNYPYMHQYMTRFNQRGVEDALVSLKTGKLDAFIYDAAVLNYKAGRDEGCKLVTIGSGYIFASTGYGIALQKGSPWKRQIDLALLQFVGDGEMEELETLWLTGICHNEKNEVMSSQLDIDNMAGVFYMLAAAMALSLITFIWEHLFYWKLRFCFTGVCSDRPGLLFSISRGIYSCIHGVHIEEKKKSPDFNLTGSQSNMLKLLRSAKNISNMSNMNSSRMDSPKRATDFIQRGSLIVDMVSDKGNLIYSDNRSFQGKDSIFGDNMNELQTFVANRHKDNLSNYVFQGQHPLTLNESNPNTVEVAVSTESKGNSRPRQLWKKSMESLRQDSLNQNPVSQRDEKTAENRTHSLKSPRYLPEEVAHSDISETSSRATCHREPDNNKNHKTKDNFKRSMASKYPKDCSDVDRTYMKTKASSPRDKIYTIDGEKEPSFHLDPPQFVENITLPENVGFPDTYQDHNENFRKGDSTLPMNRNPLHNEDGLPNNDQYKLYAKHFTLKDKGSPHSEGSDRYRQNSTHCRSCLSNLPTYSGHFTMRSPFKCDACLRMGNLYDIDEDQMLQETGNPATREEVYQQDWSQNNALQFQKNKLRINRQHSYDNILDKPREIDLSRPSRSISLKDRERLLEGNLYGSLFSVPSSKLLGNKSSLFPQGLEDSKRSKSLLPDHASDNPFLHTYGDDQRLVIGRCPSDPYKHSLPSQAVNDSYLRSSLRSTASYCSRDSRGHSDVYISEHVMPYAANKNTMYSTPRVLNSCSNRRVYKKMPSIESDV", "assay": "NMDA/R Eurofins SafetyScreen44 (BI)", "settings": "Compound concentration 10.0 uM"}, "[7]": {"biological_target": "Cannabinoid receptor 2 (Homo sapiens) (UniProt P34972)", "assay": "CB2/PERIPH/H Eurofins SafetyScreen44 (BI)", "settings": "Compound concentration 10.0 uM"}, "[8]": {"biological_target": "Epidermal growth factor receptor (Homo sapiens) (UniProt P00533)", "assay": "EGF/HU Eurofins SafetyScreen44 (BI)", "settings": "Compound concentration 10.0 uM"}, "[9]": {"biological_target": "B1 bradykinin receptor (Homo sapiens) (UniProt P46663)", "assay": "B1/H Eurofins SafetyScreen44 (BI)", "settings": "Compound concentration 10.0 uM"}, "[10]": {"biological_target": "Substance-P receptor (Homo sapiens) (UniProt P25103)", "assay": "NK1/HU Eurofins SafetyScreen44 (BI)", "settings": "Compound concentration 10.0 uM"}, "[11]": {"biological_target": "T2, 5-hydroxytryptamine receptor 3A (Homo sapiens) (UniProt P46098)", "T2 sequence (whole entry)": "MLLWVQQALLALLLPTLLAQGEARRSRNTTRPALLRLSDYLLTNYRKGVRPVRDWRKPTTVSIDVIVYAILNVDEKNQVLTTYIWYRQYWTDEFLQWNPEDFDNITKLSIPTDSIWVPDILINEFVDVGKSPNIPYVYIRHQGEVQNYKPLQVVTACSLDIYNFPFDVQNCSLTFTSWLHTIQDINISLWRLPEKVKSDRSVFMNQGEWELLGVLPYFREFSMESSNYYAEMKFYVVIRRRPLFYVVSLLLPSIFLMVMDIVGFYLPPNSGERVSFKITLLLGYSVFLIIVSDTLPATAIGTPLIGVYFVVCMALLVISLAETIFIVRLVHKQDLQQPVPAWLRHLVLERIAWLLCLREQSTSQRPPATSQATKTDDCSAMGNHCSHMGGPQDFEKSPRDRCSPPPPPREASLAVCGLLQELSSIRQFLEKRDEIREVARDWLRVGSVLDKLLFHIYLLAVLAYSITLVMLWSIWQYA", "assay": "5HT3/HU Eurofins SafetyScreen44 (BI)", "settings": "Compound concentration 10.0 uM"}, "[12]": {"biological_target": "Kappa-type opioid receptor (Homo sapiens) (UniProt P41145)", "assay": "KAPPA/HU Eurofins SafetyScreen44 (BI)", "settings": "Compound concentration 10.0 uM"}, "[13]": {"biological_target": "Histamine H2 receptor (Homo sapiens) (UniProt P25021)", "assay": "H2/H Eurofins SafetyScreen44 (BI)", "settings": "Compound concentration 10.0 uM"}, "[14]": {"biological_target": "T3, Alpha-2B adrenergic receptor (Homo sapiens) (UniProt P18089)", "T3 sequence (whole entry)": "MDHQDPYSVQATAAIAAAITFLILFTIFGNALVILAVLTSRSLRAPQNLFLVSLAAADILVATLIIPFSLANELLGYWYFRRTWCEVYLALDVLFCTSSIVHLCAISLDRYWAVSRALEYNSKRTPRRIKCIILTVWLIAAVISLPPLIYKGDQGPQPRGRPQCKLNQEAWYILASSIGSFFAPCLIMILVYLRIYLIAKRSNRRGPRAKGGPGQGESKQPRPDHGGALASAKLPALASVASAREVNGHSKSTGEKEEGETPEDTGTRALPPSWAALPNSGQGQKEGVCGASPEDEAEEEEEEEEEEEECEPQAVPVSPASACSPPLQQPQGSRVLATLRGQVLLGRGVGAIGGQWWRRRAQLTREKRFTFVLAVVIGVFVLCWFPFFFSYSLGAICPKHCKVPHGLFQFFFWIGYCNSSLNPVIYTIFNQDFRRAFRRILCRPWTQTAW", "assay": "ALPHA2B/H Eurofins SafetyScreen44 (BI)"}, "[15]": {"biological_target": "3',5'-cyclic-AMP phosphodiesterase 4A (Rattus norvegicus) (UniProt P54748)", "sequence (P54748 whole entry)": "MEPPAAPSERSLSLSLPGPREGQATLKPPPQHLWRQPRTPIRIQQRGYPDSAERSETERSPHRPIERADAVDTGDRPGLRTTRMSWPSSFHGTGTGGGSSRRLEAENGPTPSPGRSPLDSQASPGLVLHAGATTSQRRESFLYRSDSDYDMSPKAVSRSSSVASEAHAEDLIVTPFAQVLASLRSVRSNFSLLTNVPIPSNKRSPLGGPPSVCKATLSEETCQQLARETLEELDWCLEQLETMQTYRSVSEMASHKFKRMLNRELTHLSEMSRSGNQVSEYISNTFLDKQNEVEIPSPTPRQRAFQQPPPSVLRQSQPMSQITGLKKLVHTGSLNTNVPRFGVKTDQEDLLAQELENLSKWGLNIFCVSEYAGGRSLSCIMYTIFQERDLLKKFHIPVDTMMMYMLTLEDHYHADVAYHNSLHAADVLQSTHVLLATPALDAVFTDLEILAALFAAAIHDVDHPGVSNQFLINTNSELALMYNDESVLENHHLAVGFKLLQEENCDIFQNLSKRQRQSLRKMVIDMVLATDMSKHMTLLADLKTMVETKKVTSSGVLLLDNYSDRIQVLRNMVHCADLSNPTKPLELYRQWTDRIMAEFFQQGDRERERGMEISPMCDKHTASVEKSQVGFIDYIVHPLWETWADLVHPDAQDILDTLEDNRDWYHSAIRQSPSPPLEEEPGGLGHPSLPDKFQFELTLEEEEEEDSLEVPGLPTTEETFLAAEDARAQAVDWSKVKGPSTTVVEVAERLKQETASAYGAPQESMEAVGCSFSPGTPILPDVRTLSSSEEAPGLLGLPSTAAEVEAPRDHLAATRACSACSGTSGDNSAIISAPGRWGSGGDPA", "assay": "ROLIPRAM/R Eurofins SafetyScreen44 (BI)", "settings": "Compound concentration 10.0 uM"}, "[16]": {"biological_target": "Glutamate receptor ionotropic, NMDA 1 (Rattus norvegicus) (UniProt P35439)", "assay": "NMDAGLSI/RA Eurofins SafetyScreen44 (BI)", "settings": "Compound concentration 10.0 uM"}, "[17]": {"biological_target": "5-hydroxytryptamine receptor 2B (Homo sapiens) (UniProt P41595)", "settings": "Compound concentration 10.0 uM"}, "[18]": {"biological_target": "Delta-type opioid receptor (Homo sapiens) (UniProt P41143)", "assay": "DELTA/HU Eurofins SafetyScreen44 (BI)", "settings": "Compound concentration 10.0 uM"}, "[19]": {"test_system": "imidazoline I2 receptor (Rattus norvegicus)", "assay": "I2/CENTR/R Eurofins SafetyScreen44 (BI)", "settings": "Compound concentration 10.0 uM"}, "[20]": {"biological_target": "D(1A) dopamine receptor (Homo sapiens) (UniProt P21728)", "assay": "D1/HU Eurofins SafetyScreen44 (BI)", "settings": "Compound concentration 10.0 uM"}, "[21]": {"biological_target": "Sodium-dependent dopamine transporter (Homo sapiens) (UniProt Q01959)", "assay": "DATRANS/H Eurofins SafetyScreen44 (BI)", "settings": "Compound concentration 10.0 uM"}, "[22]": {"biological_target": "Peroxisome proliferator-activated receptor gamma (Homo sapiens) (UniProt P37231)", "assay": "PPARG/H AG Eurofins SafetyScreen44 (BI)", "settings": "filed as agonist, Compound concentration 10.0 uM"}, "[23]": {"biological_target": "Sigma non-opioid intracellular receptor 1 (Homo sapiens) (UniProt Q99720)", "sequence (Q99720 whole entry)": "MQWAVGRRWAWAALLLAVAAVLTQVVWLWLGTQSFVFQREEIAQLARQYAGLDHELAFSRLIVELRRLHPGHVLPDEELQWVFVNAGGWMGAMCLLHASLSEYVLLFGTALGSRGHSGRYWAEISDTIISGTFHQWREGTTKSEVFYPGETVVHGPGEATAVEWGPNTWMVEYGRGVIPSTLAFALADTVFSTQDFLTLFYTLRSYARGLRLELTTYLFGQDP", "assay": "SIGMA1/HU Eurofins SafetyScreen44 (BI)", "settings": "Compound concentration 10.0 uM"}, "[24]": {"biological_target": "Muscarinic acetylcholine receptor M3 (Homo sapiens, UniProt P20309)", "sequence (P20309 whole entry, looked up)": "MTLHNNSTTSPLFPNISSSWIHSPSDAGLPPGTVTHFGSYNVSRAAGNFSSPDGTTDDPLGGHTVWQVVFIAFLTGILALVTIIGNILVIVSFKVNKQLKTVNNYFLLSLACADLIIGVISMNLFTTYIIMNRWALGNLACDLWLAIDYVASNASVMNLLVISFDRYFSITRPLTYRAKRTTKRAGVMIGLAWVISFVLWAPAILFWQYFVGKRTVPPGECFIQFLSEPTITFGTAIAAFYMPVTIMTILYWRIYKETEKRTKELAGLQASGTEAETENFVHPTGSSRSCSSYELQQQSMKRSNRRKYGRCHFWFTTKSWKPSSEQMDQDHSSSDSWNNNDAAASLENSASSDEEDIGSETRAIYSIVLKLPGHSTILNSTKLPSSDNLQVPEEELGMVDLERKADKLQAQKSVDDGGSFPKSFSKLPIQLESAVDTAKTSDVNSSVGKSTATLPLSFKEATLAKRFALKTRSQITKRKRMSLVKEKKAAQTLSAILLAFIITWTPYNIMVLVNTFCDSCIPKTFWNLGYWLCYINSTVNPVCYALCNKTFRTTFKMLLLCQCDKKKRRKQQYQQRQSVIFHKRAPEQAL", "assay": "M3/HU Eurofins SafetyScreen44 (BI)"}, "[25]": {"biological_target": "Glutamate receptor ionotropic, kainate 1 (Rattus norvegicus) (UniProt P22756)", "assay": "KAINATE/R Eurofins SafetyScreen44 (BI)", "settings": "Compound concentration 10.0 uM"}}}
{"smiles": "COCCCS(=O)(=O)c1cc(C)c(-c2ccc(F)c3c2CC[C@H]3Oc2ccc3c(c2)OC[C@H]3CC(=O)O)c(C)c1", "values": [{"measurement": "residual activity", "setting": "[1]", "result": 103, "unit": "%"}, {"measurement": "residual activity", "setting": "[2]", "result": 109, "unit": "%"}, {"measurement": "residual activity", "setting": "[3]", "result": 103, "unit": "%"}, {"measurement": "residual activity", "setting": "[4]", "result": 102, "unit": "%"}, {"measurement": "residual activity", "setting": "[5]", "result": 102, "unit": "%"}, {"measurement": "residual activity", "setting": "[6]", "result": 87, "unit": "%"}, {"measurement": "residual activity", "setting": "[7]", "result": 115, "unit": "%"}]}
{"smiles": "Cc1cc(OCCC(C)(C)O)cc(C)c1-c1ccc(F)c2c1CC[C@H]2Oc1ccc2c(c1)OC[C@H]2CC(=O)O", "values": [{"measurement": "residual activity", "setting": "[8]", "result": 99, "unit": "%"}, {"measurement": "residual activity", "setting": "[9]", "result": 91, "unit": "%"}, {"measurement": "residual activity", "setting": "[10]", "result": 113, "unit": "%"}, {"measurement": "residual activity", "setting": "[11]", "result": 100, "unit": "%"}, {"measurement": "residual activity", "setting": "[12]", "result": 106, "unit": "%"}, {"measurement": "residual activity", "setting": "[13]", "result": 95, "unit": "%"}, {"measurement": "residual activity", "setting": "[14]; Compound concentration 0.3 uM", "result": 97, "unit": "%"}, {"measurement": "residual activity", "setting": "[14]; Compound concentration 1.0 uM", "result": 98, "unit": "%"}, {"measurement": "residual activity", "setting": "[14]; Compound concentration 3.0 uM", "result": 103, "unit": "%"}, {"measurement": "residual activity", "setting": "[14]; Compound concentration 10.0 uM", "result": 90, "unit": "%"}, {"measurement": "residual activity", "setting": "[14]; Compound concentration 30.0 uM", "result": 75, "unit": "%"}, {"measurement": "residual activity", "setting": "[15]", "result": 105, "unit": "%"}, {"measurement": "residual activity", "setting": "[16]", "result": 86, "unit": "%"}, {"measurement": "inhibition", "setting": "[17]", "result": 3.41, "unit": "%"}, {"measurement": "residual activity", "setting": "[18]", "result": 74, "unit": "%"}, {"measurement": "residual activity", "setting": "[19]", "result": 86, "unit": "%"}, {"measurement": "residual activity", "setting": "[20]", "result": 81, "unit": "%"}, {"measurement": "residual activity", "setting": "[21]", "result": 68, "unit": "%"}, {"measurement": "residual activity", "setting": "[22]", "result": 8, "unit": "%"}, {"measurement": "residual activity", "setting": "[23]", "result": 91, "unit": "%"}, {"measurement": "residual activity", "setting": "[24]; Compound concentration 0.3 uM", "result": 83, "unit": "%"}, {"measurement": "residual activity", "setting": "[24]; Compound concentration 1.0 uM", "result": 75, "unit": "%"}, {"measurement": "residual activity", "setting": "[24]; Compound concentration 3.0 uM", "result": 60, "unit": "%"}, {"measurement": "residual activity", "setting": "[24]; Compound concentration 10.0 uM", "result": 54, "unit": "%"}, {"measurement": "residual activity", "setting": "[24]; Compound concentration 30.0 uM", "result": 28, "unit": "%"}, {"measurement": "residual activity", "setting": "[25]", "result": 117, "unit": "%"}]}
